This note sets out measurements from ChEMBL document CHEMBL1201862, “PubChem BioAssay data set” (2004).

Experiment [1] addresses Mitochondrial peptide methionine sulfoxide reductase (Bos taurus, UniProt P54149). It is filed as functional.
Experiment [2] concerns the target Tyrosine-protein phosphatase non-receptor type 11 (Homo sapiens, UniProt Q06124). Briefly: PTPN11 enzyme inhibitors – biochemical, selectivity assay for STEP inhibitor project, dose response (AID 602367). The note with it: read-out: IC50_Mean. It is filed as functional.
The target of experiment [3] is Dual specificity protein phosphatase 3 (Homo sapiens, UniProt P51452). Nature of the experiment: VHR phosphatase inhibition, dose response, selectivity assay for STEP inhibitor project, biochemical (AID 602374). It is filed as functional. The note with it: read-out: IC50_Mean.
For experiment [4], the target named is Tyrosine-protein phosphatase non-receptor type 5 (Homo sapiens, UniProt P54829). Briefly: PTPN5 enzyme inhibition – biochemical, fluorescence intensity, uHTS hits, confirmation (AID 602372). The note with it: read-out: IC50_Mean. It is filed as functional.
Experiment [5] concerns the target T1, Insulin-degrading enzyme (Homo sapiens, UniProt P14735).
T1 sequence (P14735 whole entry): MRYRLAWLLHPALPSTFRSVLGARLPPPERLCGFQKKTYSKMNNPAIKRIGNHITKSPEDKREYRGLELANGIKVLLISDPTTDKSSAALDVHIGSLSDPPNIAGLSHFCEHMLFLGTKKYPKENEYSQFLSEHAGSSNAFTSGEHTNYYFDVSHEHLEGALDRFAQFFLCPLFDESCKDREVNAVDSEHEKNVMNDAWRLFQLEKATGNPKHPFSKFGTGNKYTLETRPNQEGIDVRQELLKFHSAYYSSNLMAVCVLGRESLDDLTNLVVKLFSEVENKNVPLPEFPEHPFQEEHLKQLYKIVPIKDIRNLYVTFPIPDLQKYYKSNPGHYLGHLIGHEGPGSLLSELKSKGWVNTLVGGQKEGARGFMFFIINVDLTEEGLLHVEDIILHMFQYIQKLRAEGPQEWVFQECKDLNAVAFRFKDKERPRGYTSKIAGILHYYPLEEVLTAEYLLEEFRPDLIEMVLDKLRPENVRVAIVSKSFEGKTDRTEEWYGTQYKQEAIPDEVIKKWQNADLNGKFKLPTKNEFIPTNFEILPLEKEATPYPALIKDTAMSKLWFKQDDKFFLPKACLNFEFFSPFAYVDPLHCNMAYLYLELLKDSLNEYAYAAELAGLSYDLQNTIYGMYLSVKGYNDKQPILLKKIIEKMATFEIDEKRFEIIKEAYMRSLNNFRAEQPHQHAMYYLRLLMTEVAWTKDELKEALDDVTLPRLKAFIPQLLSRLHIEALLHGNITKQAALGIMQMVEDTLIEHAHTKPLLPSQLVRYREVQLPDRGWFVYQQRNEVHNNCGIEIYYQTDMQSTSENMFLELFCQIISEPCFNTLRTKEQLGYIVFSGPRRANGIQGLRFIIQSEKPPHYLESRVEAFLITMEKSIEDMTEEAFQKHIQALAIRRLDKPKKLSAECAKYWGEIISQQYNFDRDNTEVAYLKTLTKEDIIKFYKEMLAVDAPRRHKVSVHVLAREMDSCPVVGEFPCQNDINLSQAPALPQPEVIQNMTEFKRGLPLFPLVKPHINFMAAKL
Nature of the experiment: cellular IDE activation of Abeta substrate cleavage – fluorescence polarization, HEK cells, dose response (AID 588439). It is filed as functional, cell-based. On the technique in general: Fluorescence polarisation rises when a labelled molecule tumbles more slowly, as on binding a larger partner.

The test system of experiment [6] is HEK293. Briefly: optical interference in Abeta FP readout, dose response, artefact control for IDE activator project, biochemical, fluorescence polarization (AID 588442). It is filed as functional, cell-based. The note with it: Homo sapiens.
Experiment [7] has as its target T1, Insulin-degrading enzyme. Briefly: recombinant IDE activation, cell-free – biochemical, fluorescence polarization, counter-screen for IDE activator project, dose response (AID 588681).
The subject of experiment [8] is HEK293. Nature of the experiment: membrane integrity loss in HEK cells – cell-based, fluorescence, cytotoxicity control for IDE activator project, dose response (AID 588440).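 Further: cytotoxicity by LDH release measuring loss of membrane integrity.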 It is filed as functional. The note with it: Homo sapiens.
The nature of experiment [9]: A549 cell cytotoxicity, dose response, cytotoxicity control, plate reader, cherry-pick, antagonist series (AID 743412). It is filed as functional, cell-based.
Experiment [10] is described as follows: blockade of melanocortin 4 receptor signaling – cell-based, plate reader, cherry pick, counter-screen for LGR2 antagonist project, dose response (AID 743444).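 Further: transfected HEK 293 cells stimulated with alpha-MSH peptide; potency of inhibitors of the alpha-MSH evoked signal.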 It is filed as functional.
Experiment [11] is described as follows: viability loss in HEK293 cells – cell-based, plate reader, cherry-picked samples, cytotoxicity control, dose response (AID 743446). It is filed as functional.
The nature of experiment [12]: cAMP pathway inhibition in counterscreen cell line – TR-FRET cAMP detection, counter-screen for MC4R biased antagonist project, dose response (AID 602305).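 Further: U2OS cells stimulated with forskolin near its EC80 as the cAMP inducer; potency is for inhibition of forskolin-stimulated cAMP signaling.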 It is filed as functional, cell-based. (The purpose of a counterscreen is to sort out artefacts and off-target activity.)
Experiment [13] is described as follows: toxicity toward HepG2 liver cells – cell-based, plate reader, cherry-pick, antagonist series, cytotoxicity control, dose response (AID 743416). It is filed as functional.
A short description of experiment [14]: blockers of bursicon-stimulated LGR2 cAMP reporter – cell-based, HEK293, CRE-luciferase reporter, cherry pick, set 2, dose response (AID 743343).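 Further: transfected cells were stimulated with diluted bursicon conditioned medium after compound addition.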 It is filed as functional. For orientation: Reporter assays use an easily measured gene product as a stand-in for the process of interest.
For experiment [15], the target named is Melanocortin receptor 4 (Homo sapiens, UniProt P32245). Briefly: inhibitors of MC4R cAMP signaling – cell-based, TR-FRET, biased antagonists, dose response (AID 602298).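 Further: antagonist potency against agonist-stimulated cAMP production.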 It is filed as functional.
The test system of experiment [16] is Streptococcus sp. 'group A'. Briefly: Streptococcus pyogenes SK(-)GAS viability under kanamycin – luminescence, BacTiterGlo, confirmation, counter-screen for streptokinase expression inhibitor project, dose response (AID 1900). It is filed as functional, organism-based.
The target in experiment [17] is T2, Streptokinase A (Streptococcus pyogenes serotype M1, UniProt P10520).
T2 sequence (P10520 whole entry): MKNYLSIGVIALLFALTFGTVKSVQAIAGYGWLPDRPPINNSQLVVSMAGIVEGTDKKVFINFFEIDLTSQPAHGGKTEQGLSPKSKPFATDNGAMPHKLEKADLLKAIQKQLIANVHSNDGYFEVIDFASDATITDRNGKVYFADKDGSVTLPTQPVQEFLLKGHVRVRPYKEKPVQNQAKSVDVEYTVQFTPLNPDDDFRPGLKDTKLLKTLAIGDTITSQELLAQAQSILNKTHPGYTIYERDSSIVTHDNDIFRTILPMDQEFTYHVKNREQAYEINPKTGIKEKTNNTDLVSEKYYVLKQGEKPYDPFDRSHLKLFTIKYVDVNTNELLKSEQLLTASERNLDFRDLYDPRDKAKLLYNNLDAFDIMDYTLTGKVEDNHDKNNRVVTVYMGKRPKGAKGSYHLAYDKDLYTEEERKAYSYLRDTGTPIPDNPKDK
Nature of the experiment: viability-normalized secreted streptokinase activity reduction – plasminogen activation absorbance, OD405, dose response (AID 1914).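 Further: secreted streptokinase activity via plasminogen activation per viability signal from cell pellet.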 It is filed as functional, Streptococcus pyogenes M1 GAS.

In experiment [18] the target is T3, Type-1 angiotensin II receptor (Homo sapiens, UniProt P30556).
T3 sequence (P30556 whole entry): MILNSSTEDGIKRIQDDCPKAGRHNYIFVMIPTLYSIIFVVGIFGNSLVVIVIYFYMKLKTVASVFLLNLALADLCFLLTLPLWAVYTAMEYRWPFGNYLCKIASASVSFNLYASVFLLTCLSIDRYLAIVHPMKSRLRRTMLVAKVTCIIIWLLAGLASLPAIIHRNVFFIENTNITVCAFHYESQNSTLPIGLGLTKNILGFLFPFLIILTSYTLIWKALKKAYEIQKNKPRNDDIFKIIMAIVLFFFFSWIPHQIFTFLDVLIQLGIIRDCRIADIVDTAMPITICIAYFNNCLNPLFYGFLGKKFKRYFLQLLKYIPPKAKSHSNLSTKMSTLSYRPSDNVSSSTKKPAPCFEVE
Nature of the experiment: antagonism of angiotensin II type 1 receptor – cell-based, uHTS hits, selectivity assay for APJ receptor antagonist project, dose response (AID 463214).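 Further: antagonist potency against angiotensin II stimulated AT1 response.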 It is filed as functional.

The nature of experiment [19]: loss of viability in HepG2 cells – cell-based, CellTiter-Glo, cherry-picked, cytotoxicity control for Shn3 inhibitor project, dose response (AID 624134). It is filed as functional.
Experiment [20] in a line: alpha-synuclein stem-loop luciferase translation blockers – H4 neuroglioma cells, luminescence, confirmation (AID 1988). It is filed as functional, cell-based.
Experiment [21] has as its system Streptococcus. Briefly: GAS UMAA2166 growth inhibition – luminescence, BacTiterGlo, counter-screen for streptokinase expression inhibitor project, dose response (AID 1915).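 Further: potency for reduction of bacterial viability or growth.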 It is filed as functional, organism-based.
A short description of experiment [22]: non-specific 3'UTR reporter inhibition in Clone20-Shn3RL – cell-based, Renilla luciferase, cherry-picked, counter-screen for Shn3 inhibitor project, dose response (AID 624133). It is filed as functional.
The nature of experiment [23]: reduction of Shn3 3'UTR-driven luciferase in osteoblasts – cell-based, Clone20 osteoblasts, firefly luciferase, cherry-picked, dose response (AID 624132).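 Further: firefly luciferase luminescence from reporter carrying the Shn3 3'UTR in osteoblasts.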 It is filed as functional.
Experiment [24] concerns the target Beta-galactosidase (Escherichia coli, UniProt Q8VNN2). Briefly: PubChem AID 485352. It is filed as functional.
Experiment [25] in a line: luciferase reporter signal suppression in cells – H4 neuroglioma cells, luminescence, dose response (AID 1990). It is filed as functional, cell-based.
The nature of experiment [26]: Luminescence Cell-Based Dose Response HTS to Identify Inhibitors of 5'UTR Stem-Loop Driven Prion Protein mRNA Translation in H4 Neuroglioblastoma Cells. [Related pubchem assays: 1827 (Project Summary), 1813 (Primary HTS)]. It is filed as functional.

The structures appear in SMILES notation. Active and inactive are the calls of the source.

Chain of Melanocortin receptor 4 (P32245 whole entry): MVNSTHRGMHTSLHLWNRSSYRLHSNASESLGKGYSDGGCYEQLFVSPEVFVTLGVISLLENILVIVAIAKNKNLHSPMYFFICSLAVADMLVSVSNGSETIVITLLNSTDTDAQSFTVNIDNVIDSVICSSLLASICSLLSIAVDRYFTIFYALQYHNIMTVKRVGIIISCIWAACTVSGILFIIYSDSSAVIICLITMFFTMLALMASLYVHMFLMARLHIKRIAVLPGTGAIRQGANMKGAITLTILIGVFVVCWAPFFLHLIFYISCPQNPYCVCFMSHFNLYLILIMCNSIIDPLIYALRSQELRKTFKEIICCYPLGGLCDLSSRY
Chain of Mitochondrial peptide methionine sulfoxide reductase (P54149 whole entry): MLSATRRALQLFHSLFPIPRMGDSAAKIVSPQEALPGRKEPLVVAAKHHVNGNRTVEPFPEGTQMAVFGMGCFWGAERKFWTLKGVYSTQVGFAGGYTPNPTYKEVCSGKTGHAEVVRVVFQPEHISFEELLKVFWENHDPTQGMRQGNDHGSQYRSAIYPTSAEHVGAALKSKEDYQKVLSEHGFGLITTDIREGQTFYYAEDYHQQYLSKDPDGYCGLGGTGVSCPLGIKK
Chain of Beta-galactosidase (Q8VNN2 whole entry): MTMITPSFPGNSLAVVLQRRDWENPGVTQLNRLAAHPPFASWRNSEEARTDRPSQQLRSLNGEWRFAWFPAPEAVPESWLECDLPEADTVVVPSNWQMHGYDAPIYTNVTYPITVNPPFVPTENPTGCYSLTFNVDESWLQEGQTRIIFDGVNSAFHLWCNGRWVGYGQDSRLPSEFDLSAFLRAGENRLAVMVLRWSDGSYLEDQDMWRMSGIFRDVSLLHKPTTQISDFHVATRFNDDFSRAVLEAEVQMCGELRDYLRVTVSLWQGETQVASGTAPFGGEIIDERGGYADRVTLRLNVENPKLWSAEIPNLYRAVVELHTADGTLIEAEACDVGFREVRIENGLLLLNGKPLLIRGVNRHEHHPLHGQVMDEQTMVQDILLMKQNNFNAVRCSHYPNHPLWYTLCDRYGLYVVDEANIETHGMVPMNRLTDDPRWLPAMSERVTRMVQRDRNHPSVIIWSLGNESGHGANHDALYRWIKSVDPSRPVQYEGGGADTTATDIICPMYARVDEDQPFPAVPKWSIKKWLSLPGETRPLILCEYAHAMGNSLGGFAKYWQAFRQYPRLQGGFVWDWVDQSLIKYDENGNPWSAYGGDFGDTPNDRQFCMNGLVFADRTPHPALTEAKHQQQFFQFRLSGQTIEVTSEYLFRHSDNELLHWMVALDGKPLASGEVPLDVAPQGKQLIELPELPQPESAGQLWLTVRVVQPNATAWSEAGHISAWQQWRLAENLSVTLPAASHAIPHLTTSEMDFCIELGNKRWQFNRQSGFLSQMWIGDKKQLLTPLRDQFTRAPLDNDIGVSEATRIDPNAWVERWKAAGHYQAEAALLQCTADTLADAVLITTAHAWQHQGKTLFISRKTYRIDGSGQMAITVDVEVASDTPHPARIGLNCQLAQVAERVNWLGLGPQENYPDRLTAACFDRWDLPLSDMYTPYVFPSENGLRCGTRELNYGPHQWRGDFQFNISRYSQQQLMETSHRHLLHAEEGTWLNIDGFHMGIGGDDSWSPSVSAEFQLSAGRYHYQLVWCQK
Chain of Tyrosine-protein phosphatase non-receptor type 5 (P54829 whole entry): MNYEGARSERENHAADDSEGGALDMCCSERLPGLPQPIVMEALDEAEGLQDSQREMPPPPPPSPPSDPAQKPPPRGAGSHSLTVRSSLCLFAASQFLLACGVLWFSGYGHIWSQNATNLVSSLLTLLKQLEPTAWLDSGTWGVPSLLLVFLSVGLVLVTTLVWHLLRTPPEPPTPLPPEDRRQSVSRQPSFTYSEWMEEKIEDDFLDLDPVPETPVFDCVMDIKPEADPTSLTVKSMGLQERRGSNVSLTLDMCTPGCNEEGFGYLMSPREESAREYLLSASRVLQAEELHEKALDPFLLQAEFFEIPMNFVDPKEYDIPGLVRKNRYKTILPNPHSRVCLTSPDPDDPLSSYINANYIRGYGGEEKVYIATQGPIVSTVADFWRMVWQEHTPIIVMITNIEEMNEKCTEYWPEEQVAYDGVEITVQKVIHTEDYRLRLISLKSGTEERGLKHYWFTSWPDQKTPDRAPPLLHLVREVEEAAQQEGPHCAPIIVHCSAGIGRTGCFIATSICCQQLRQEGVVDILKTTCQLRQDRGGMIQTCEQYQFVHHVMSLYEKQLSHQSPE
Chain of Tyrosine-protein phosphatase non-receptor type 11 (Q06124 whole entry): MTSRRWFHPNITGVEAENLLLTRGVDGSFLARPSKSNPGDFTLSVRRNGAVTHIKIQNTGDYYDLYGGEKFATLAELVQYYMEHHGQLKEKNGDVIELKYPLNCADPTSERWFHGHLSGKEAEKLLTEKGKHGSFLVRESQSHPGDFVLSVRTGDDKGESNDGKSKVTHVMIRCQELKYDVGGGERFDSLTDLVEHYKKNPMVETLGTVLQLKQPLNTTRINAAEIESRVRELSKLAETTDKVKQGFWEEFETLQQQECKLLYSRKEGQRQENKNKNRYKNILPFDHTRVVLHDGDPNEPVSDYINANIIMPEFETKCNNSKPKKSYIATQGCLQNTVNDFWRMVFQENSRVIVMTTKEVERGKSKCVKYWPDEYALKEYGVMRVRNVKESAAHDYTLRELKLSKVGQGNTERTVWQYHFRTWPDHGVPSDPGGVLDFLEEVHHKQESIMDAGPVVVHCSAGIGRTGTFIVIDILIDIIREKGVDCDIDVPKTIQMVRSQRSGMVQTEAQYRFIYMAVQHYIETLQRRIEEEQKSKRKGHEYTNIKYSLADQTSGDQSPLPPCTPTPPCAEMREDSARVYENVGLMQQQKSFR
Chain of Dual specificity protein phosphatase 3 (P51452 whole entry): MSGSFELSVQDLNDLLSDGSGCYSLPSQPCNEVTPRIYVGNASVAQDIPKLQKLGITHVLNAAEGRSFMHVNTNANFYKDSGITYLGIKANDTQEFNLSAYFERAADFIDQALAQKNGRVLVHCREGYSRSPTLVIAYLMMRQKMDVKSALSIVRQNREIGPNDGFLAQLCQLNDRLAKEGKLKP

Consider `Sc1nnc(C2CCCCC2)n1/N=C/c1ccccc1Cl`, for which the IC50 in experiment [1] is 155 µM (inactive).
As for `Cc1ccc(-c2nc3ncccc3o2)cc1NC(=O)CC(C)C`, the IC50 in [2], in experiment [3] and in experiment [4] was > 80 µM (inactive) each time.
As for `O=C(Nc1cc(S(=O)(=O)N2CCOCC2)ccc1N1CCOCC1)c1ccccc1F`, the EC50 in [5], in experiment [6] and in [7] was > 54.7 µM (inactive) throughout. Besides, the IC50 in [8] is > 89.2 µM (inactive).
For `Cc1ccccc1CN1Cc2cnnn2-c2ccccc2C1C#N` (stereo not drawn), the AC50 was 20.9 µM (active) in [9]; 8.97 µM (active) in experiment [10]; 15.8 µM (active) in [11]; 17 µM (active) in experiment [13]; 13.8 µM (active) in [14]. Further, the figures for the IC50 in [12] and in experiment [15] were > 64.5 µM (inactive) and 7.25 µM (active), respectively.
As for `Cc1sc2nc(CN3CCOCC3)nc(Cl)c2c1C`, the IC50 in experiment [12] and in experiment [15] was > 64.5 µM (inactive) in each case.
For `Cc1ccc(CS(=O)(=O)c2ncc(Cl)c(C(=O)Nc3ccc(OC(F)F)cc3)n2)cc1`, the concentration giving a half-maximal response (EC50) in experiment [16] is 8.23 µM (active); in experiment [17], 2.07 µM (active); in experiment [20], 18.1 µM (active); in experiment [21] it was 22.1 µM (active); in [24] it was > 40 µM (inactive); in experiment [25], > 120 µM (not active). Also, in experiment [26], the EC50 is 12.7 µM (active). Besides, the IC50 in experiment [18] was 11.3 µM (active). Further, the AC50 is 61.5 µM (active) in experiment [19], 13.5 µM (active) in experiment [22] and 2.34 µM (active) in experiment [23].

Usually EC50 stands for the concentration that produces a half-maximal response. Usually AC50 stands for the midpoint of the concentration-response curve, whichever way the signal moves.
